Data: patent US20240360178A1, “MACROCYCLIC IMMUNOMODULATORS” (Bristol-Myers Squibb Company, priority 2021, published 2024)
Positions of bridges follow the written chain, without caps; N, C: chain ends. Non-standard residues stand in square brackets, D forms with d. Residues, ends and D or L forms follow the SMILES beside them. ξ: configuration not given here. Phe(4-COOH) = N[C@@H](Cc1ccc(C(=O)O)cc1)C(=O)O; Bip = N[C@@H](Cc1ccc(-c2ccccc2)cc1)C(=O)O; NMeF = CN[C@@H](Cc1ccccc1)C(=O)O; ξR = N=C(N)NCCCC(N)C(=O)O; NMeA = CN[C@@H](C)C(=O)O; ξE = NC(CCC(=O)O)C(=O)O; Sar = CNCC(=O)O

Target: T1, human PD-1 (Jurkat-PD-1 cells) / PE-labeled human PD-L1-Ig (Homo sapiens, UniProt Q15116)
T1 construct: expressed in transfected cells; host or cells: Jurkat cell line over-expressing human PD-1
Test: Jurkat-PD-1 Cell Binding High-Content Screening Assay (CBA); Jurkat hPD1-PDL1 assay
Settings: Jurkat cell line over-expressing human PD-1; PE-labeled PD-L1-Ig 20 nM final; compound incubated 2 hours at 37° C.; read-out: Jurkat HPD1-PDL1 IC50
Procedure, shortened: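 Read-out is high-content imaging of PE fluorescence on PD-1-over-expressing Jurkat cells. Cells are first exposed to compound for 2 hours at 37° C in serum-containing DMEM, after which PE-labeled PD-L1-Ig is added at 20 nM final.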

T1 sequence (Q15116 25-288): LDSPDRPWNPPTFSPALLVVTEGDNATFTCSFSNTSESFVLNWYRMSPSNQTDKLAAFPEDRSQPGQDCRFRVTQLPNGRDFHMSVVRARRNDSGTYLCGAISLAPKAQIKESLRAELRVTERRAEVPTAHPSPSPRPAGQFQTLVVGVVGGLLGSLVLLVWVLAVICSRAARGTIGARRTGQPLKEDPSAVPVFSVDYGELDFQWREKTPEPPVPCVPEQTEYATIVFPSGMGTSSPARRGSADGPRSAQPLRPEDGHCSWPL

| SMILES | IC50 [nM] |
| --- | --- |
| CC(C)C[C@@H]1NC(=O)C(CCCNC(=N)N)NC(=O)[C@H](Cc2ccccc2)N(C)C(=O)[C@H](C)N(C)C(=O)[C@H](CCCNC(=N)N)NC(=O)[C@H](Cc2ccc(-c3ccccc3)cc2)NC(=O)[C@H](C(C)C)NC(=O)[C@H](Cc2c[nH]c3ccccc23)NC(=O)[C@H](CC(=O)O)NC(=O)[C@H](Cc2ccc(O)cc2)NC(=O)[C@H](Cc2ccccc2)NC(=O)CSC[C@@H](C(=O)NCC(N)=O)NC(=O)[C@H](CCCNC(=N)N)NC(=O)[C@H](C(C)C)NC1=O (stereo partly drawn) [Example 1220] ({CH2CO}-FYDWV[Bip]R[NMeA][NMeF][ξR]LVRCG-NH2; thioether N-14) | 720 |
| CC(C)C[C@@H]1NC(=O)C(CCC(=O)O)NC(=O)[C@H](Cc2ccccc2)N(C)C(=O)[C@H](C)N(C)C(=O)[C@H](CCCNC(=N)N)NC(=O)[C@H](Cc2ccc(-c3ccccc3)cc2)NC(=O)[C@H](C(C)C)NC(=O)[C@H](Cc2c[nH]c3ccccc23)NC(=O)[C@H](CC(=O)O)NC(=O)[C@H](Cc2ccc(O)cc2)NC(=O)[C@H](Cc2ccccc2)NC(=O)CSC[C@@H](C(=O)NCC(N)=O)NC(=O)[C@H](CO)NC(=O)[C@H](C(C)C)NC1=O (stereo partly drawn) [Example 1221] ({CH2CO}-FYDWV[Bip]R[NMeA][NMeF][ξE]LVSCG-NH2; thioether N-14) | 500 |
| CC(C)C[C@@H]1NC(=O)C(CCCNC(=N)N)NC(=O)[C@H](Cc2ccccc2)N(C)C(=O)[C@H](C)N(C)C(=O)[C@H](CCCNC(=N)N)NC(=O)[C@H](Cc2ccc(-c3ccccc3)cc2)NC(=O)[C@H](C(C)C)NC(=O)[C@H](Cc2c[nH]c3ccccc23)NC(=O)[C@H](CC(=O)O)NC(=O)[C@H](Cc2ccc(C(=O)O)cc2)NC(=O)[C@H](Cc2ccccc2)NC(=O)CSC[C@@H](C(=O)NCC(N)=O)NC(=O)[C@H](CO)NC(=O)[C@H](C(C)C)NC1=O (stereo partly drawn) [Example 1222] ({CH2CO}-F[Phe(4-COOH)]DWV[Bip]R[NMeA][NMeF][ξR]LVSCG-NH2; thioether N-14) | 60 |
| CC(C)C[C@@H]1NC(=O)[C@H](Cc2c[nH]c3ccccc23)NC(=O)[C@H](CC(=O)O)NC(=O)[C@H](Cc2ccc(O)cc2)NC(=O)[C@H](Cc2ccccc2)NC(=O)CSC[C@@H](C(=O)NCC(N)=O)NC(=O)[C@H](CO)NC(=O)[C@H](C(C)C)NC(=O)[C@H](CC(C)C)NC(=O)[C@H](CO)NC(=O)CN(C)C(=O)[C@H](C)N(C)C(=O)[C@H](C(C)C)NC(=O)[C@H](Cc2ccc(-c3ccccc3)cc2)NC1=O [Example 1225] ({CH2CO}-FYDWL[Bip]V[NMeA][Sar]SLVSCG-NH2; thioether N-14) | 960 |

Continued by falling IC50, values first:

| IC50 [nM] | SMILES |
| --- | --- |
| 990 | CC(C)C[C@@H]1NC(=O)C(CCCNC(=N)N)NC(=O)[C@H](Cc2ccccc2)N(C)C(=O)[C@H](CCC(=O)O)NC(=O)[C@H](CCCNC(=N)N)NC(=O)[C@H](Cc2ccc(-c3ccccc3)cc2)NC(=O)[C@H](C(C)C)NC(=O)[C@H](Cc2c[nH]c3ccccc23)NC(=O)[C@H](CC(=O)O)NC(=O)[C@H](Cc2ccc(O)cc2)NC(=O)[C@H](Cc2ccccc2)NC(=O)CSC[C@@H](C(=O)NCC(N)=O)NC(=O)[C@H](CO)NC(=O)[C@H](C(C)C)NC1=O (stereo partly drawn) [Example 1223] ({CH2CO}-FYDWV[Bip]RE[NMeF][ξR]LVSCG-NH2; thioether N-14) |
| 160 | CC(C)C[C@@H]1NC(=O)[C@H](CC(N)=O)NC(=O)CN(C)C(=O)[C@H](C)N(C)C(=O)[C@H](C(C)C)NC(=O)[C@H](Cc2ccc(-c3ccccc3)cc2)NC(=O)[C@H](Cc2ccc(O)cc2)NC(=O)[C@H](Cc2c[nH]c3ccccc23)NC(=O)[C@H](CC(=O)O)NC(=O)[C@H](Cc2ccc(O)cc2)NC(=O)[C@H](Cc2ccccc2)NC(=O)CSC[C@@H](C(=O)NCC(N)=O)NC(=O)[C@H](CO)NC(=O)[C@H](C(C)C)NC1=O [Example 1224] ({CH2CO}-FYDWY[Bip]V[NMeA][Sar]NLVSCG-NH2; thioether N-14) |
